Here are results for 6 compounds from patent publication US6737383B1, “Herbicidal oxadiazolidines” (priority 1999, dated 2004).

In one test the test system is giant foxtail. Briefly: Test B pre/postemergence giant foxtail. Type of test: in vivo, Setaria faberii. In a few lines:
(§1)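 Test chemicals in a non-phytotoxic solvent mixture with surfactant were sprayed preemergence onto planted seeds and postemergence onto plants 2 to 18 cm tall (1- to 4-leaf stage). After twelve to sixteen days in a greenhouse, injury was visually rated against untreated controls from 0 (no effect) to 10 (complete control).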

The subject of a further test is morningglory. The test is described as follows: Test B pre/postemergence morningglory. In kind it is in vivo, Ipomoea hederacea. An outline of the steps: as §1
A further test concerns pigweed. Briefly: Test B pre/postemergence pigweed. In kind it is in vivo, Amaranthus retroflexus. In a few lines: as §1
[1] abbreviates: Postemergence, Rate 125 g/ha, scale 0 to 10, 0 is no effect, 10 is complete control.
The mark [2] stands for this setting: Preemergence, Rate 62 g/ha, scale of 0 to 10 where 0 is no effect and 10 is complete control.
The mark [3] stands for this setting: Preemergence, Rate 250 g/ha, scale of 0 to 10 where 0 is no effect and 10 is complete control.
The mark [4] stands for this setting: Preemergence, Rate 500 g/ha, scale of 0 to 10 where 0 is no effect and 10 is complete control.
Setting [5] is: Rate 62 g/ha, Postemergence, scale 0 to 10 (0 no effect, 10 complete control).
Setting [6] is: Rate 500 g/ha, Postemergence, scale 0 to 10, 0 no effect, 10 complete control.
The mark [7] stands for this setting: Postemergence, Rate 250 g/ha, scale 0 to 10, 0 no effect, 10 complete control.
Where [8] appears, read: Postemergence, Rate 1000 g/ha, scale 0 to 10 (0 no effect, 10 complete control).
Where [9] appears, read: Preemergence, Rate 125 g/ha, scale 0 to 10 (0 no effect, 10 complete control).
[10] abbreviates: Preemergence, Rate 500 g/ha, scale 0 (no effect) to 10 (complete control).
Where [11] appears, read: Rate 125 g/ha, Postemergence, scale 0 to 10, 0 no effect, 10 complete control.
Where [12] appears, read: Rate 500 g/ha, Postemergence, 0 to 10 scale (0 no effect, 10 complete control).
Setting [13] is: Rate 1000 g/ha, Preemergence, scale 0 to 10 (0 no effect, 10 complete control).
[14] abbreviates: Rate 62 g/ha, Postemergence, scale of 0 to 10 where 0 is no effect and 10 is complete control.
The mark [15] stands for this setting: Rate 125 g/ha, Postemergence, scale 0 to 10.
Setting [16] is: Rate 125 g/ha, Preemergence, scale of 0 to 10 where 0 is no effect and 10 is complete control.
Where [17] appears, read: Preemergence, Rate 125 g/ha, 0 is no effect, 10 is complete control.
The mark [18] stands for this setting: Preemergence, Rate 250 g/ha, scale 0 to 10, 0 is no effect, 10 is complete control.
[19] abbreviates: Rate 500 g/ha, Postemergence, scale 0 to 10.
Setting [20] is: Postemergence, Rate 250 g/ha, scale 0 to 10.
[21] abbreviates: Postemergence, Rate 500 g/ha, scale of 0 to 10 where 0 is no effect and 10 is complete control.
Where [22] appears, read: Preemergence, Rate 62 g/ha, scale 0 to 10 (0 no effect, 10 complete control).
[23] abbreviates: Preemergence, Rate 125 g/ha, scale of 0 to 10 where 0 is no effect and 10 is complete control.
The mark [24] stands for this setting: Preemergence, Rate 500 g/ha, scale 0 to 10, 0 is no effect, 10 is complete control.
Setting [25] is: Rate 125 g/ha, Postemergence, scale 0 to 10, 0 is no effect, 10 is complete control.
Where [26] appears, read: Rate 125 g/ha, Postemergence, scale of 0 to 10 where 0 is no effect and 10 is complete control.
Where [27] appears, read: Rate 250 g/ha, Postemergence, scale of 0 to 10 where 0 is no effect and 10 is complete control.

On to `Cc1c(-n2c(=O)on(C(=O)N(c3ccc(F)cc3)C(C)C)c2=O)ccc2ccccc12` [Compound 338], for which the “Plant response rating, Giant foxtail” value in the test on giant foxtail (setting [1]) and in the test with giant foxtail (setting [6]) was 0 each time. Moreover, the “Giant foxtail plant response rating” value in the test on giant foxtail (setting [2]) came to 0; in the test with giant foxtail (setting [3]) it was 0; with giant foxtail (setting [4]), 9; in the test with giant foxtail (setting [5]) it was 0. The “Giant foxtail plant response rating (0 to 10 scale)” value in the test with giant foxtail (Preemergence, Rate 125 g/ha) came out at 0. Moreover, the figures for the “Plant response rating, Morningglory” value with morningglory (setting [1]) and in the test on morningglory (setting [6]) were 0 and 2, respectively. The “Morningglory plant response rating” value in the test on morningglory (setting [2]), in the test on morningglory (setting [3]), in the test with morningglory (setting [4]) and in the test with morningglory (setting [5]) was 0 throughout. In addition, the “Morningglory plant response rating (0 to 10 scale)” value in the test on morningglory (Preemergence, Rate 125 g/ha) was 0. Also, the “Plant response rating, Redroot pigweed” value with pigweed (setting [1]) and in the test with pigweed (setting [6]) was 0 in each case. The “Redroot pigweed plant response rating” value in the test with pigweed (setting [2]), in the test on pigweed (setting [3]), in the test on pigweed (setting [4]) and with pigweed (setting [5]) was 0 each time. Moreover, in the test on pigweed (Preemergence, Rate 125 g/ha), the “Redroot pigweed plant response rating (0 to 10 scale)” value is 0.
As for `CC(C)N(C(=O)n1oc(=O)n(-c2cc(Cl)cc(Cl)c2)c1=O)C1=CCOCC1` [Compound 9], the “Giant foxtail plant response rating” value in the test with giant foxtail (setting [7]) amounted to 0; in the test with giant foxtail (setting [8]), 0; in the test with giant foxtail (setting [10]), 3; in the test on giant foxtail (setting [11]) it was 0; in the test with giant foxtail (setting [12]), 0. Moreover, the results for the “Plant response rating, Giant foxtail” value in the test on giant foxtail (setting [9]), with giant foxtail (setting [3]) and in the test on giant foxtail (setting [13]) were 0, 0 and 7, respectively. Further, the “Morningglory plant response rating” value in the test with morningglory (setting [7]) is given as 0; with morningglory (setting [8]) it was 2; in the test on morningglory (setting [10]) it was 0; with morningglory (setting [11]), 0; in the test with morningglory (setting [12]), 0. The “Plant response rating, Morningglory” value in the test with morningglory (setting [9]), in the test on morningglory (setting [3]) and with morningglory (setting [13]) was 0 throughout. The “Redroot pigweed plant response rating” value in the test with pigweed (setting [7]) is reported as 0; with pigweed (setting [8]), 3; in the test on pigweed (setting [10]), 0; with pigweed (setting [11]) it was 0; in the test on pigweed (setting [12]), 3. In addition, the “Plant response rating, Redroot pigweed” value in the test with pigweed (setting [9]), in the test with pigweed (setting [3]) and in the test with pigweed (setting [13]) was 0 throughout.
Regarding `Cc1ccccc1-n1c(=O)on(C(=O)N(c2ccc(N(C)C)cc2)C(C)C)c1=O` [Compound 237], the “Giant foxtail plant response rating” value in the test with giant foxtail (setting [2]) was determined as 0; in the test on giant foxtail (setting [3]), 4; with giant foxtail (setting [14]), 0; in the test on giant foxtail (setting [15]), 0; in the test on giant foxtail (setting [16]), 0; in the test with giant foxtail (setting [6]) it was 0. The “Plant response rating, Giant foxtail” value in the test on giant foxtail (setting [4]) is given as 4. Moreover, the “Plant response rating (0 to 10; 0 is no effect, 10 is complete control), Giant foxtail” value in the test with giant foxtail (Rate 250 g/ha, Postemergence) is on record as 0. Also, the “Morningglory plant response rating” value in the test on morningglory (setting [2]) amounted to 0; with morningglory (setting [3]), 0; in the test with morningglory (setting [14]), 2; in the test with morningglory (setting [15]), 2; with morningglory (setting [16]), 0; in the test on morningglory (setting [6]) it was 6. For the same compound, in the test on morningglory (setting [4]), the “Plant response rating, Morningglory” value was determined as 2. The “Plant response rating (0 to 10; 0 is no effect, 10 is complete control), Morningglory” value with morningglory (Rate 250 g/ha, Postemergence) was found to be 3. In addition, the “Redroot pigweed plant response rating” value in the test with pigweed (setting [2]) came to 0; in the test on pigweed (setting [3]), 0; in the test on pigweed (setting [14]) it was 0; in the test with pigweed (setting [15]), 0; in the test on pigweed (setting [16]) it was 0; in the test with pigweed (setting [6]), 3. Further, in the test on pigweed (setting [4]), the “Plant response rating, Redroot pigweed” value is given as 0. Besides, in the test with pigweed (Rate 250 g/ha, Postemergence), the “Plant response rating (0 to 10; 0 is no effect, 10 is complete control), Redroot pigweed” value is on record as 2.
For the compound `C=CCn1c(=O)on(C(=O)N(c2ccc(F)cc2)C2CCC2)c1=O` [Compound 194], the “Giant foxtail plant response rating” value turned out to be 3 in the test with giant foxtail (setting [2]); 8 in the test with giant foxtail (setting [18]); 0 with giant foxtail (setting [14]); 1 with giant foxtail (setting [15]); 2 with giant foxtail (setting [19]). In addition, in the test on giant foxtail (setting [17]), the “Giant foxtail plant response rating (0 to 10 scale)” value came out at 8. For the same compound, in the test on giant foxtail (setting [4]), the “Plant response rating, Giant foxtail” value came out at 9. The “Plant response rating (0 to 10; 0 is no effect, 10 is complete control), Giant foxtail” value with giant foxtail (Rate 250 g/ha, Postemergence) was 2. For the same compound, the “Morningglory plant response rating” value worked out at 0 in the test on morningglory (setting [2]); 0 with morningglory (setting [18]); 0 with morningglory (setting [14]); 0 in the test with morningglory (setting [15]); 2 with morningglory (setting [19]). In the test on morningglory (setting [17]), the “Morningglory plant response rating (0 to 10 scale)” value was found to be 0. Further, the “Plant response rating, Morningglory” value with morningglory (setting [4]) worked out at 0. For the same compound, the “Plant response rating (0 to 10; 0 is no effect, 10 is complete control), Morningglory” value in the test on morningglory (Rate 250 g/ha, Postemergence) came to 1. In addition, the “Redroot pigweed plant response rating” value with pigweed (setting [2]) is listed as 5; in the test on pigweed (setting [18]) it was 8; with pigweed (setting [14]), 0; in the test on pigweed (setting [15]), 0; with pigweed (setting [19]) it was 0. Moreover, in the test with pigweed (setting [17]), the “Redroot pigweed plant response rating (0 to 10 scale)” value is reported as 7. Further, the “Plant response rating, Redroot pigweed” value with pigweed (setting [4]) was 10. Further, the “Plant response rating (0 to 10; 0 is no effect, 10 is complete control), Redroot pigweed” value in the test with pigweed (Rate 250 g/ha, Postemergence) was 0.
`C=CC[Si](C)(C)Cn1c(=O)on(C(=O)N(c2ccc(F)cc2)C(C)C)c1=O` [Compound 426]: the “Giant foxtail plant response rating” value in the test on giant foxtail (setting [20]) is recorded as 9; with giant foxtail (setting [21]) it was 9; with giant foxtail (setting [18]), 10; with giant foxtail (setting [24]), 10; in the test with giant foxtail (setting [14]), 3; in the test on giant foxtail (setting [25]), 7. Also, the “Plant response rating, Giant foxtail” value with giant foxtail (setting [22]) and in the test with giant foxtail (setting [23]) was 9 in each case. Besides, the “Morningglory plant response rating” value in the test with morningglory (setting [20]) amounted to 9; in the test with morningglory (setting [21]) it was 9; in the test on morningglory (setting [18]), 0; with morningglory (setting [24]) it was 6; in the test on morningglory (setting [25]), 7. Also, the “Plant response rating, Morningglory” value in the test with morningglory (setting [22]) and in the test with morningglory (setting [23]) was 0 in each case. Besides, the “Redroot pigweed plant response rating” value in the test on pigweed (setting [20]) is 5; in the test with pigweed (setting [21]) it was 6; with pigweed (setting [18]), 8; with pigweed (setting [24]), 10; in the test on pigweed (setting [25]) it was 0. For the same compound, the “Plant response rating, Redroot pigweed” value in the test on pigweed (setting [22]) is given as 2; in the test on pigweed (setting [23]), 4.
For `C=CCn1c(=O)on(C(=O)N(c2ccc(F)cc2)C(C)C(=O)OCC)c1=O` (stereo not shown) [Compound 279], the “Giant foxtail plant response rating” value in the test with giant foxtail (setting [8]) was 4; with giant foxtail (setting [3]), 6; in the test on giant foxtail (setting [26]) it was 0; in the test with giant foxtail (setting [16]) it was 3; in the test on giant foxtail (setting [6]) it was 1. Further, the “Plant response rating, Giant foxtail” value stood at 7 in the test with giant foxtail (setting [4]), 0 in the test on giant foxtail (setting [27]) and 7 in the test on giant foxtail (setting [13]). The “Morningglory plant response rating” value with morningglory (setting [8]) is 3; in the test with morningglory (setting [3]) it was 0; in the test on morningglory (setting [26]), 1; in the test on morningglory (setting [16]), 0; in the test on morningglory (setting [6]), 2. Also, the “Plant response rating, Morningglory” value is listed as 0 with morningglory (setting [4]), 2 with morningglory (setting [27]) and 0 with morningglory (setting [13]). Moreover, the “Redroot pigweed plant response rating” value with pigweed (setting [8]) came out at 4; in the test on pigweed (setting [3]), 0; in the test on pigweed (setting [26]) it was 0; in the test with pigweed (setting [16]) it was 0; in the test with pigweed (setting [6]) it was 2. Also, the “Plant response rating, Redroot pigweed” value in the test with pigweed (setting [4]) is given as 0; with pigweed (setting [27]), 2; in the test on pigweed (setting [13]) it was 0.
